{"source": "patent US20230270724A1", "about": "“PDE3 inhibitors for treating viral infections” (priority 2020, published 2023)", "key": {"SARS-CoV-2": {"tested_on": "SARS-CoV-2", "assay": "Clinical case series: enoximone IV (Perfan) in COVID-19 patients at ICU admission, compared with prior control patients", "details": "for FiO2 / RESP. RATE: one value per patient; for RESP. SUPPORT: one value per patient 1-4"}, "pro-inflammation": {"tested_on": "pro-inflammation", "details": "patients with cardiopulmonary bypass surgery; antiviral activity maintained; cited from earlier work"}, "[1]": {"details": "at the doses used, all patients"}, "[2]": {"details": "one value per enoximone-treated subject (1-4 = c4-c7)"}}, "note": "Where “and” joins values, the source holds several entries; their conditions need not be identical. Identical values can stand only once. Entries after “also recorded” stand apart in the source; their conditions may differ."}
{"molecule": "CSc1ccc(C(=O)c2[nH]c(=O)[nH]c2C)cc1", "note": "[enoximone, 1,3-dihydro-4-methyl-5-[4-(methylthio)benzoyl]-2H-imidazol-2-on]", "values": [{"measurement": "time after start of enoximone until breathing calmly and able to call", "setting": "SARS-CoV-2; Patient 1, 20 mg IV then perfusion 10 mg/h, monosyllabic upon entry", "result": 10, "unit": "min"}, {"measurement": "time until calmer breathing and mobilisation", "setting": "SARS-CoV-2; Patient 2, 20 mg IV then 10 mg/h", "result": "about 2 days"}, {"measurement": "time before the patient had lost the feeling of dyspnea", "setting": "SARS-CoV-2; Patient 2, 20 mg IV then 10 mg/h, sputum retention", "result": 1, "unit": "days"}, {"measurement": "time until patient breathed optimally and Optiflow could be reduced to 0", "setting": "SARS-CoV-2; Patient 3 (COPD Gold III), 20 mg IV then 10 mg/h", "result": "a day and a half"}, {"measurement": "time until able to breathe calmly and communicate normally", "setting": "SARS-CoV-2; Patient 4, bolus then i.v. perfusor 5 mg/hour during 24 hours", "result": "≤ 10", "unit": "min"}, {"measurement": "FiO2", "setting": "SARS-CoV-2; after 24 hrs of Enoximone", "result": "60% and 55% and 50%"}, {"measurement": "RESP. RATE", "setting": "SARS-CoV-2; after 24 hrs of Enoximone", "result": "15 and 12"}, {"measurement": "RESP. SUPPORT", "setting": "SARS-CoV-2; after 24 hrs of Enoximone", "result": "none and Optiflow (3×)"}, {"measurement": "FiO2", "setting": "SARS-CoV-2; after 48 hrs", "result": "60% and 50%"}, {"measurement": "RESP. RATE", "setting": "SARS-CoV-2; after 48 hrs", "result": "16 and 13"}, {"measurement": "RESP. SUPPORT", "setting": "SARS-CoV-2; after 48 hrs", "result": "none (2×) and Optiflow (2×)"}, {"measurement": "persistence of beneficial effect", "setting": "SARS-CoV-2; after discontinuation of enoximone, all patients", "result": "beneficial effect persisted even after discontinuation"}, {"measurement": "adverse events", "setting": "SARS-CoV-2; [1]", "result": "no clinically relevant adverse events were observed"}, {"measurement": "tolerability", "setting": "SARS-CoV-2; [1]", "result": "well-tolerated in all patients"}, {"measurement": "blood gas analysis", "setting": "SARS-CoV-2; between before and 1 h after enoximone", "result": "minimal improvement in three out of four patients"}, {"measurement": "stay in ICU", "setting": "SARS-CoV-2; enoximone-treated patients, controls 12-31 days", "result": "2 to 5", "unit": "days"}, {"measurement": "discharge from hospital after start of enoximone treatment", "setting": "SARS-CoV-2; enoximone-treated patients, controls 18-44 days following start of mechanical ventilation", "result": "5 to 12", "unit": "days"}, {"measurement": "overall stay in hospital", "setting": "SARS-CoV-2; enoximone-treated patients, controls 22-46 days, Mann-Whitney U test p=0.05", "result": "13 to 15", "unit": "days"}, {"measurement": "edema", "setting": "SARS-CoV-2; following enoximone treatment", "result": "decrease of edema"}, {"measurement": "oxygenation", "setting": "SARS-CoV-2; following enoximone treatment (Table 3, FiO2%)", "result": "substantially improved"}, {"measurement": "need for mechanical ventilation", "setting": "SARS-CoV-2; four enoximone-treated patients vs three controls, Fisher's exact test p=0.029", "result": "none of the enoximone-treated patients required mechanical ventilation; also recorded: no need for mechanical ventilation"}, {"measurement": "symptomatic relief", "setting": "SARS-CoV-2; four patients", "result": "rapid symptomatic relief in two out of four patients"}, {"measurement": "Days mechanical ventilation", "setting": "SARS-CoV-2; [2]", "result": 0, "unit": "days"}, {"measurement": "Total days in hospital [=ii + iii + iv]", "setting": "SARS-CoV-2; [2]", "result": "14 days and 13 days and 15 days"}, {"measurement": "Total duration of disease (onset-discharge) [=i + ii + iii + iv)", "setting": "SARS-CoV-2; [2]", "result": "19 and 20 and 26"}, {"measurement": "time to full recovery", "setting": "SARS-CoV-2; patients 1 and 4", "result": "within a few hours"}, {"measurement": "time to respond", "setting": "SARS-CoV-2; patients 2 and 3 (comorbid obesity or COPD GOLD III), sputum retention", "result": "24 to 36", "unit": "h"}, {"measurement": "effectiveness against pro-inflammation compared with methylprednisolone", "setting": "pro-inflammation", "result": "as effective against pro-inflammation as methylprednisolone"}]}
